The values below come from publication PMC4266366 (Medical Science Monitor : International Medical Journal of …, 2014).

For the series, the system named is BACE expression in transfected INR-32 human neuroblastoma cells. Briefly: Selection of BACE1 siRNAs: inhibition of BACE expression in transfected cells. It counts as cell-based. As to conditions: BACE1 siRNA (75 pmoles) with Oligofectamin reagent.

Consider “siRNA A5 3: siRNA A5 3 - 3′GCAAGGAGUACAACUAUGAUU 5′, 3′GGAGGGAGCAUGAUCAUUGUU5′ (chemistry not given here)”, for which the “inhibition of BACE expression” value worked out at 86.5%.
